Measurements: patent US11083725B2 (priority 2014, dated 2021)

System: NHBE cells
Test: Biolog metabolic array: substrate use by NHBE cells with or without CA09 infection
Assay type: cell-based, human
Conditions: for Substrate use, 590 nm absorbance normalized to zero hour, 1 hr: Biolog PMM2, 1 hr; for Substrate use, 590 nm absorbance normalized to zero hour, 5 hr: Biolog PMM2, 5 hr; for Substrate use, 590 nm absorbance normalized to zero hour, 7 hr: Biolog PMM2, 7 hr
[1] = Control (uninfected) NHBE cells
[2] = Virus (CA09-infected NHBE cells, MOI 1)
[3] = Virus: CA09-infected NHBE cells, MOI 1, Biolog PMM2

Compound	590 nm absorbance normalized to zero hour (substrate use), 1 hr [1]	590 nm absorbance normalized to zero hour (substrate use), 2 hr [1]	590 nm absorbance normalized to zero hour (substrate use), 3 hr [1]	590 nm absorbance normalized to zero hour (substrate use), 4 hr [1]	590 nm absorbance normalized to zero hour (substrate use), 6 hr [1]	590 nm absorbance normalized to zero hour (substrate use), 8 hr [1]	590 nm absorbance normalized to zero hour (substrate use), 9 hr [1]	590 nm absorbance normalized to zero hour (substrate use), 10 hr [1]	590 nm absorbance normalized to zero hour (substrate use), 11 hr [1]	Substrate use, 590 nm absorbance normalized to zero hour, 1 hr [1]	Substrate use, 590 nm absorbance normalized to zero hour, 5 hr [1]	Substrate use, 590 nm absorbance normalized to zero hour, 7 hr [1]	590 nm absorbance normalized to zero hour (substrate use), 1 hr [2]	590 nm absorbance normalized to zero hour (substrate use), 2 hr [2]	590 nm absorbance normalized to zero hour (substrate use), 3 hr [2]	590 nm absorbance normalized to zero hour (substrate use), 4 hr [2]	590 nm absorbance normalized to zero hour (substrate use), 5 hr [2]	590 nm absorbance normalized to zero hour (substrate use), 6 hr [2]	590 nm absorbance normalized to zero hour (substrate use), 7 hr [2]	590 nm absorbance normalized to zero hour (substrate use), 8 hr [2]	further results
CCCCCC(=O)O [Hexanoic Acid]	1.35	1.47	2.74	2.80	1.04	4.11	4.10	4.13	3.16	1.35	1.18	4.15	0.25	0.28	0.31	0.33	0.36	0.37	0.37	0.38	590 nm absorbance normalized to zero hour (substrate use), 9 hr [2]: 0.36; 590 nm absorbance normalized to zero hour (substrate use), 10 hr [2]: 0.40; 590 nm absorbance normalized to zero hour (substrate use), 11 hr [2]: 0.41; 590 nm absorbance normalized to zero hour (substrate use), 1 hr [3]: 0.25; 590 nm absorbance normalized to zero hour (substrate use), 2 hr [3]: 0.28; 590 nm absorbance normalized to zero hour (substrate use), 3 hr [3]: 0.31; 590 nm absorbance normalized to zero hour (substrate use), 4 hr [3]: 0.33; 590 nm absorbance normalized to zero hour (substrate use), 5 hr [3]: 0.36; 590 nm absorbance normalized to zero hour (substrate use), 6 hr [3]: 0.37; 590 nm absorbance normalized to zero hour (substrate use), 7 hr [3]: 0.37; 590 nm absorbance normalized to zero hour (substrate use), 8 hr [3]: 0.38; 590 nm absorbance normalized to zero hour (substrate use), 9 hr [3]: 0.36; 590 nm absorbance normalized to zero hour (substrate use), 10 hr [3]: 0.40; 590 nm absorbance normalized to zero hour (substrate use), 11 hr [3]: 0.41
OC[C@H]1O[C@@H](O[C@H]2[C@H](O)[C@@H](O)[C@@H](O)O[C@@H]2CO)[C@H](O)[C@@H](O)[C@H]1O [a-D-Lactose]	0.44	0.58	0.65	0.69	0.63	0.94	1.01	1.02	0.92	0.44	0.82	0.88	0.17	0.22	0.26	0.28	0.33	0.35	0.37	0.39	590 nm absorbance normalized to zero hour (substrate use), 0 hr [1]: 1.00; Substrate use, 590 nm absorbance normalized to zero hour, 0 hr (Control (uninfected) NHBE cells, Biolog PMM2, 0 hr): 1.00; 590 nm absorbance normalized to zero hour (substrate use), 0 hr [2]: 1.00; 590 nm absorbance normalized to zero hour (substrate use), 9 hr [2]: 0.42; 590 nm absorbance normalized to zero hour (substrate use), 10 hr [2]: 0.41; 590 nm absorbance normalized to zero hour (substrate use), 11 hr [2]: 0.39; 590 nm absorbance normalized to zero hour (substrate use), 0 hr [3]: 1.00; 590 nm absorbance normalized to zero hour (substrate use), 1 hr [3]: 0.17; 590 nm absorbance normalized to zero hour (substrate use), 2 hr [3]: 0.22; 590 nm absorbance normalized to zero hour (substrate use), 3 hr [3]: 0.26; 590 nm absorbance normalized to zero hour (substrate use), 4 hr [3]: 0.28; 590 nm absorbance normalized to zero hour (substrate use), 5 hr [3]: 0.33; 590 nm absorbance normalized to zero hour (substrate use), 6 hr [3]: 0.35; 590 nm absorbance normalized to zero hour (substrate use), 7 hr [3]: 0.37; 590 nm absorbance normalized to zero hour (substrate use), 8 hr [3]: 0.39; 590 nm absorbance normalized to zero hour (substrate use), 9 hr [3]: 0.42; 590 nm absorbance normalized to zero hour (substrate use), 10 hr [3]: 0.41; 590 nm absorbance normalized to zero hour (substrate use), 11 hr [3]: 0.39
